Measurements published in ChEMBL document CHEMBL3885881, “DrugMatrix”.

Species on record: Rattus norvegicus
Test: DrugMatrix - Regimen: Daily Repeat
Assay type: toxicity, organism-based, Sprague-Dawley
Parameters: regimen Daily Repeat, gender Male, age 6-8 weeks
Details: in vivo, po, route oral GAVAGE, vehicle .5 % CMC; for ABSOLUTE BASOPHIL / ABSOLUTE EOSINOPHIL / ABSOLUTE LYMPHOCYTE / ABSOLUTE MONOCYTE / ABSOLUTE SEGMENTED NEUTROPHIL / BASOPHIL / EOSINOPHIL / ERYTHROCYTE COUNT / HEMATOCRIT / HEMOGLOBIN / LEUKOCYTE COUNT / LYMPHOCYTE / MEAN CORPUSCULAR HEMOGLOBIN / MEAN CORPUSCULAR HEMOGLOBIN CONCENTRATION / MEAN CORPUSCULAR VOLUME / MONOCYTE / NEUTROPHIL / NUCLEATED RED BLOOD CELLS / PLATELET COUNT: tissue Blood; for ALANINE AMINOTRANSFERASE / ALBUMIN / ALKALINE PHOSPHATASE / ASPARTATE AMINOTRANSFERASE / BLOOD UREA NITROGEN / CARBON DIOXIDE / CHLORIDE / CHOLESTEROL / CREATINE PHOSPHOKINASE / CREATININE / GLUCOSE / LACTATE DEHYDROGENASE / LIPASE / PHOSPHORUS / POTASSIUM / SODIUM / TOTAL BILIRUBIN / TOTAL PROTEIN / URIC ACID: tissue Plasma
[1] = 0.3 mg/kg, 72 h, dose level Low, time 3 day
[2] = 0.3 mg/kg, 120 h, dose level Low, time 5 day
[3] = 100 mg/kg, 72 h, dose level High, time 3 day
[4] = 100 mg/kg, 120 h, dose level High, time 5 day

**Q.** What does the source list for `CN1[C@@H]2CC[C@H]1C[C@@H](OC(=O)c1c[nH]c3ccccc13)C2` [TROPISETRON]?
**A.** ABSOLUTE BASOPHIL [1]: 0 CELLS/uL; ABSOLUTE EOSINOPHIL [1]: 256.33 CELLS/uL; ABSOLUTE LYMPHOCYTE [1]: 11976 CELLS/uL; ABSOLUTE MONOCYTE [1]: 96 CELLS/uL; ABSOLUTE SEGMENTED NEUTROPHIL [1]: 905 CELLS/uL; BASOPHIL [1]: 0%; EOSINOPHIL [1]: 2%; ERYTHROCYTE COUNT [1]: 5.89 x10E6/uL; HEMATOCRIT [1]: 37.4%; HEMOGLOBIN [1]: 14.07 G/DL; LEUKOCYTE COUNT [1]: 13.23 x10E3/uL; LYMPHOCYTE [1]: 90.67%; MEAN CORPUSCULAR HEMOGLOBIN [1]: 23.87 pg; MEAN CORPUSCULAR HEMOGLOBIN CONCENTRATION [1]: 37.63 G/DL; MEAN CORPUSCULAR VOLUME [1]: 63.5 fL; MONOCYTE [1]: 0.67%; NEUTROPHIL [1]: 6.67%; NUCLEATED RED BLOOD CELLS [1]: 0 /100WBC; PLATELET COUNT [1]: 1325.33 x10E3/uL; ALANINE AMINOTRANSFERASE [1]: 46.33 u/L; ALBUMIN [1]: 4.43 G/DL; ALKALINE PHOSPHATASE [1]: 408.67 u/L; ASPARTATE AMINOTRANSFERASE [1]: 87.33 u/L; BLOOD UREA NITROGEN [1]: 13 mg/dL; CARBON DIOXIDE [1]: 26 mmol/L; CHLORIDE [1]: 106 MEQ/L; CHOLESTEROL [1]: 71.33 mg/dL; CREATINE PHOSPHOKINASE [1]: 621.67 u/L; CREATININE [1]: 0.21 mg/dL; GLUCOSE [1]: 160.67 mg/dL; LACTATE DEHYDROGENASE [1]: 123.67 u/L; LIPASE [1]: 9 u/L; PHOSPHORUS [1]: 14.4 mg/dL; POTASSIUM [1]: 6.64 MEQ/L; SODIUM [1]: 147.37 MEQ/L; TOTAL BILIRUBIN [1]: 0.2 mg/dL; TOTAL PROTEIN [1]: 6.17 G/DL; URIC ACID [1]: 2.47 mg/dL; ABSOLUTE BASOPHIL [2]: 0 CELLS/uL; ABSOLUTE EOSINOPHIL [2]: 244.67 CELLS/uL; ABSOLUTE LYMPHOCYTE [2]: 13752.67 CELLS/uL; ABSOLUTE MONOCYTE [2]: 213.33 CELLS/uL; ABSOLUTE SEGMENTED NEUTROPHIL [2]: 1056 CELLS/uL; BASOPHIL [2]: 0%; EOSINOPHIL [2]: 1.67%; ERYTHROCYTE COUNT [2]: 5.41 x10E6/uL; HEMATOCRIT [2]: 34.5%; HEMOGLOBIN [2]: 13.27 G/DL; LEUKOCYTE COUNT [2]: 15.27 x10E3/uL; LYMPHOCYTE [2]: 90.33%; MEAN CORPUSCULAR HEMOGLOBIN [2]: 24.57 pg; MEAN CORPUSCULAR HEMOGLOBIN CONCENTRATION [2]: 38.43 G/DL; MEAN CORPUSCULAR VOLUME [2]: 63.8 fL; MONOCYTE [2]: 1.33%; NEUTROPHIL [2]: 6.67%; NUCLEATED RED BLOOD CELLS [2]: 0 /100WBC; PLATELET COUNT [2]: 1293.33 x10E3/uL; ALANINE AMINOTRANSFERASE [2]: 47.33 u/L; ALBUMIN [2]: 4.13 G/DL; ALKALINE PHOSPHATASE [2]: 386.33 u/L; ASPARTATE AMINOTRANSFERASE [2]: 80 u/L; BLOOD UREA NITROGEN [2]: 17.67 mg/dL; CARBON DIOXIDE [2]: 25.33 mmol/L; CHLORIDE [2]: 106.67 MEQ/L; CHOLESTEROL [2]: 71.33 mg/dL; CREATINE PHOSPHOKINASE [2]: 310 u/L; CREATININE [2]: 0.21 mg/dL; GLUCOSE [2]: 162 mg/dL; LACTATE DEHYDROGENASE [2]: 329 u/L; LIPASE [2]: 9 u/L; PHOSPHORUS [2]: 13.37 mg/dL; POTASSIUM [2]: 6 MEQ/L; SODIUM [2]: 145.27 MEQ/L; TOTAL BILIRUBIN [2]: 0.27 mg/dL; TOTAL PROTEIN [2]: 6.37 G/DL; URIC ACID [2]: 1.77 mg/dL; ABSOLUTE BASOPHIL [3]: 0 CELLS/uL; ABSOLUTE EOSINOPHIL [3]: 0 CELLS/uL; ABSOLUTE LYMPHOCYTE [3]: 8279 CELLS/uL; ABSOLUTE MONOCYTE [3]: 180 CELLS/uL; ABSOLUTE SEGMENTED NEUTROPHIL [3]: 707.67 CELLS/uL; BASOPHIL [3]: 0%; EOSINOPHIL [3]: 0%; ERYTHROCYTE COUNT [3]: 5.38 x10E6/uL; HEMATOCRIT [3]: 33.5%; HEMOGLOBIN [3]: 12.6 G/DL; LEUKOCYTE COUNT [3]: 9.17 x10E3/uL; LYMPHOCYTE [3]: 90.33%; MEAN CORPUSCULAR HEMOGLOBIN [3]: 23.47 pg; MEAN CORPUSCULAR HEMOGLOBIN CONCENTRATION [3]: 37.6 G/DL; MEAN CORPUSCULAR VOLUME [3]: 62.3 fL; MONOCYTE [3]: 2%; NEUTROPHIL [3]: 7.67%; NUCLEATED RED BLOOD CELLS [3]: 0 /100WBC; PLATELET COUNT [3]: 1392.33 x10E3/uL; ALANINE AMINOTRANSFERASE [3]: 63.67 u/L; ALBUMIN [3]: 4.3 G/DL; ALKALINE PHOSPHATASE [3]: 429.67 u/L; ASPARTATE AMINOTRANSFERASE [3]: 69.33 u/L; BLOOD UREA NITROGEN [3]: 14.33 mg/dL; CARBON DIOXIDE [3]: 27.67 mmol/L; CHLORIDE [3]: 105.67 MEQ/L; CHOLESTEROL [3]: 54.33 mg/dL; CREATINE PHOSPHOKINASE [3]: 189.33 u/L; CREATININE [3]: 0.3 mg/dL; GLUCOSE [3]: 155.33 mg/dL; LACTATE DEHYDROGENASE [3]: 122.67 u/L; LIPASE [3]: 8.33 u/L; PHOSPHORUS [3]: 13.03 mg/dL; POTASSIUM [3]: 5.65 MEQ/L; SODIUM [3]: 149.97 MEQ/L; TOTAL BILIRUBIN [3]: 0.2 mg/dL; TOTAL PROTEIN [3]: 5.87 G/DL; URIC ACID [3]: 1.2 mg/dL; ABSOLUTE BASOPHIL [4]: 0 CELLS/uL; ABSOLUTE EOSINOPHIL [4]: 100.67 CELLS/uL; ABSOLUTE LYMPHOCYTE [4]: 14254 CELLS/uL; ABSOLUTE MONOCYTE [4]: 107 CELLS/uL; ABSOLUTE SEGMENTED NEUTROPHIL [4]: 1271.67 CELLS/uL; BASOPHIL [4]: 0%; EOSINOPHIL [4]: 0.67%; ERYTHROCYTE COUNT [4]: 5.79 x10E6/uL; HEMATOCRIT [4]: 36.33%; HEMOGLOBIN [4]: 13.6 G/DL; LEUKOCYTE COUNT [4]: 15.73 x10E3/uL; LYMPHOCYTE [4]: 90.67%; MEAN CORPUSCULAR HEMOGLOBIN [4]: 23.5 pg; MEAN CORPUSCULAR HEMOGLOBIN CONCENTRATION [4]: 37.43 G/DL; MEAN CORPUSCULAR VOLUME [4]: 62.73 fL; MONOCYTE [4]: 0.67%; NEUTROPHIL [4]: 8%; NUCLEATED RED BLOOD CELLS [4]: 0 /100WBC; PLATELET COUNT [4]: 1276.33 x10E3/uL; ALANINE AMINOTRANSFERASE [4]: 63.67 u/L; ALBUMIN [4]: 4.2 G/DL; ALKALINE PHOSPHATASE [4]: 501 u/L; ASPARTATE AMINOTRANSFERASE [4]: 81.67 u/L; BLOOD UREA NITROGEN [4]: 16 mg/dL; CARBON DIOXIDE [4]: 26.33 mmol/L; CHLORIDE [4]: 105.33 MEQ/L; CHOLESTEROL [4]: 59.33 mg/dL; CREATINE PHOSPHOKINASE [4]: 219 u/L; CREATININE [4]: 0.25 mg/dL; GLUCOSE [4]: 178 mg/dL; LACTATE DEHYDROGENASE [4]: 91 u/L; LIPASE [4]: 9 u/L; PHOSPHORUS [4]: 15.37 mg/dL; POTASSIUM [4]: 5.6 MEQ/L; SODIUM [4]: 146.8 MEQ/L; TOTAL BILIRUBIN [4]: 0.17 mg/dL; TOTAL PROTEIN [4]: 6.13 G/DL; URIC ACID [4]: 2.13 mg/dL
